From ChEMBL document CHEMBL1201862, “PubChem BioAssay data set” (2004)
Activity calls are given as the source filed them.

Experiments:
Protein skinhead-1 = biological target: T1, Protein skinhead-1 (Caenorhabditis elegans, UniProt P34707); format: functional
T1 sequence (P34707 whole entry): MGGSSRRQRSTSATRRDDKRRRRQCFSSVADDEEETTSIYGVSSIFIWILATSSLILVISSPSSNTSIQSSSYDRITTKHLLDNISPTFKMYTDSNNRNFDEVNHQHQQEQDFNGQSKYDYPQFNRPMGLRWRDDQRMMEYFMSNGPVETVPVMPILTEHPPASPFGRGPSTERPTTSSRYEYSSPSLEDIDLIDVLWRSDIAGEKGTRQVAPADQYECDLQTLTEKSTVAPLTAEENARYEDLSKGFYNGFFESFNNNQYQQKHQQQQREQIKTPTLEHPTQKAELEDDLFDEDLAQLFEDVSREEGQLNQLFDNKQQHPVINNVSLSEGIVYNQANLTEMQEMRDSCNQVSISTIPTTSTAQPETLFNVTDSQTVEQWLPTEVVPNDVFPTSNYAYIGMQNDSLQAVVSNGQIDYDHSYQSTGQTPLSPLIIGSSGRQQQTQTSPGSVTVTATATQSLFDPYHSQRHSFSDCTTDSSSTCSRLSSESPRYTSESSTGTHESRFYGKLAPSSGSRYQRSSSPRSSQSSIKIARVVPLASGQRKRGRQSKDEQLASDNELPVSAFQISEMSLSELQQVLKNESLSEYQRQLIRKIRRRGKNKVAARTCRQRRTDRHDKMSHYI

[1] = biological target: T2, Corticotropin-releasing factor receptor 2/Corticotropin-releasing factor-binding protein (Homo sapiens, UniProt P24387+Q13324); assay: Dose Response confirmation of uHTS hits for small molecule antagonists of the CRF-binding protein and CRF-R2 receptor complex.; format: functional; conditions: read-out: IC50_Mean
T2 sequence (Q13324 whole entry): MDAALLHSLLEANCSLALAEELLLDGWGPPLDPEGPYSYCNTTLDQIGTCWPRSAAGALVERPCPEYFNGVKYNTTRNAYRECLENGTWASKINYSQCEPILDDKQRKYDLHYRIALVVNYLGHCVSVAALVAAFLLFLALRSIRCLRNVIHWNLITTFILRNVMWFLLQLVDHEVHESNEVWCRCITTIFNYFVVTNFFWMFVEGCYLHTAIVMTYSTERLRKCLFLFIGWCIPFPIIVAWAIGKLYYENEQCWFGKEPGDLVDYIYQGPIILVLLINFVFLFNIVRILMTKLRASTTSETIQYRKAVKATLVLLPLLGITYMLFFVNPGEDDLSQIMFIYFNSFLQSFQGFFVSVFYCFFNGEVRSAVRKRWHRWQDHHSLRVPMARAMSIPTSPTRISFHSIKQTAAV
T2 sequence (P24387 whole entry): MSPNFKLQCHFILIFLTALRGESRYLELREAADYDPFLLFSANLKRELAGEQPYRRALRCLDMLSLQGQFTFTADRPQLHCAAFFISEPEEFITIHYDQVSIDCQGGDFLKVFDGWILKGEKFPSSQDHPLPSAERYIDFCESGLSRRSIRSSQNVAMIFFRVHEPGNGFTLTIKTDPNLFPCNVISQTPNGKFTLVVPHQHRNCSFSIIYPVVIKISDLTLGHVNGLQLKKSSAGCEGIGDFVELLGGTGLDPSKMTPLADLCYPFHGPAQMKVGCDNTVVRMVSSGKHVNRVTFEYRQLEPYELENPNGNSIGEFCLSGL

[2] = biological target: T2, Corticotropin-releasing factor receptor 2/Corticotropin-releasing factor-binding protein; assay: activators of CRF receptor 2 with binding protein – uHTS hits, confirmation (AID 602473); format: functional; conditions: read-out: EC50_Mean
Genome polyprotein = Genome polyprotein (dengue virus type 2, UniProt P29990); assay: flavivirus cap methylation enzyme inhibition – biochemical, confirmation dose response, primary screen (AID 588689); format: functional
[3] = tested on: Streptococcus sp. 'group A'; assay: Streptococcus pyogenes SK(-)GAS viability under kanamycin – luminescence, BacTiterGlo, confirmation, counter-screen for streptokinase expression inhibitor project, dose response (AID 1900); format: functional, organism-based; conditions: Streptococcus sp. 'group A'
[4] = viability of PTEN-deleted HCT116 cells – cell-based, HCT116 PTEN knockout, dose response (AID 1047); format: functional;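 also: HCT116 colon tumor cells with PTEN knocked out; cells exposed to compound for 60 hours before readout; potency for loss of cell viability measured by luminescence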
[5] = viability of HCT116 lacking mutant beta-catenin – cell-based, human colon tumor, dose response (AID 1045); format: functional;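 also: HCT116 colon tumor cells with beta catenin knocked out; cells exposed to compound for 60 hours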
Streptococcus = assay: GAS UMAA2166 growth inhibition – luminescence, BacTiterGlo, counter-screen for streptokinase expression inhibitor project, dose response (AID 1915); format: functional, organism-based; conditions: Streptococcus;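 also: potency for reduction of bacterial viability or growth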
[6] = Luminescence Cell-Based Dose Retest to Confirm Inhibitors of Cancer Stem Cells. [Related pubchem assays (depositor defined):AID2717, AID2721]; format: functional, Homo sapiens; conditions: Homo sapiens
[7] = biological target: Luciferin 4-monooxygenase (Photinus pyralis, UniProt P08659); assay: inhibition of purified Photinus pyralis luciferase – biochemical, luminescence, dose response (AID 1891)
[8] = Luminescence Cell-Based Dose Confirmation HTS to Identify Inhibitors of Platelet Dense Granule Release. [Related pubchem assays: 1663 (Primary HTS), 1678 (Summary of Project)]; format: functional
Cytochrome P450 2C9 = Cytochrome P450 2C9 (Homo sapiens, UniProt P11712)
P388/ADR = assay: cells; format: functional; conditions: Mus musculus
SN12K1 = assay: cells; format: functional; conditions: Homo sapiens
P388 = assay: cells; format: functional; conditions: Mus musculus
Cytochrome P450 2C19 = Cytochrome P450 2C19 (Homo sapiens, UniProt P33261); assay: Cytochrome panel assay with activity outcomes. Panel member name: p450-cyp2c19 Compounds with AC50 equal or less than 10 uM are considered active; format: functional; conditions: read-out: AC50
Chain of Cytochrome P450 2C19 (P33261 whole entry): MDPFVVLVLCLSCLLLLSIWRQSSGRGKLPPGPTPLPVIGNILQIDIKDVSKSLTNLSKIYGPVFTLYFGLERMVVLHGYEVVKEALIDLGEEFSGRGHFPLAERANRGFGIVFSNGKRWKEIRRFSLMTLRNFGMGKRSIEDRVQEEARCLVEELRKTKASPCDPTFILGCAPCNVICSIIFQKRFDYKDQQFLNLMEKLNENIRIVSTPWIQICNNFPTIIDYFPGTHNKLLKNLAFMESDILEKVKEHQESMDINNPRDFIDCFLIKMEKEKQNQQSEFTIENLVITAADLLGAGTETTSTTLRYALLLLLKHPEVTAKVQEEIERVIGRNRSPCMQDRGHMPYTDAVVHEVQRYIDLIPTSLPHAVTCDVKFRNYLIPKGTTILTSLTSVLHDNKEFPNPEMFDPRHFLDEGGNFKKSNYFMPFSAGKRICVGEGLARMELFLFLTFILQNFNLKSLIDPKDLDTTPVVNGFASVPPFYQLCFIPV

Chain of Cytochrome P450 2C9 (P11712 whole entry): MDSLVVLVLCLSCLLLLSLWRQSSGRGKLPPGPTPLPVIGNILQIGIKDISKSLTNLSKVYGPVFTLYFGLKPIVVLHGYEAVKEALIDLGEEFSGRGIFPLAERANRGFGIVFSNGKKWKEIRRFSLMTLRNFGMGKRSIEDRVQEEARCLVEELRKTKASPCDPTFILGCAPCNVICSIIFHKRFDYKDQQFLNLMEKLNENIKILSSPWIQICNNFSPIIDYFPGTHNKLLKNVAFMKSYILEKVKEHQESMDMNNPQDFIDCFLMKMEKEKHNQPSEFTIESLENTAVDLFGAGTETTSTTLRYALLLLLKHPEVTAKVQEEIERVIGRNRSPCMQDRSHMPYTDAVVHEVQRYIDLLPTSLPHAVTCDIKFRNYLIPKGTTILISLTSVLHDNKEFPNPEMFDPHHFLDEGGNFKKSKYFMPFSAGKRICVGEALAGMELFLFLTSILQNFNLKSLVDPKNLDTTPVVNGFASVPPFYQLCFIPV
Chain of Luciferin 4-monooxygenase (P08659 whole entry): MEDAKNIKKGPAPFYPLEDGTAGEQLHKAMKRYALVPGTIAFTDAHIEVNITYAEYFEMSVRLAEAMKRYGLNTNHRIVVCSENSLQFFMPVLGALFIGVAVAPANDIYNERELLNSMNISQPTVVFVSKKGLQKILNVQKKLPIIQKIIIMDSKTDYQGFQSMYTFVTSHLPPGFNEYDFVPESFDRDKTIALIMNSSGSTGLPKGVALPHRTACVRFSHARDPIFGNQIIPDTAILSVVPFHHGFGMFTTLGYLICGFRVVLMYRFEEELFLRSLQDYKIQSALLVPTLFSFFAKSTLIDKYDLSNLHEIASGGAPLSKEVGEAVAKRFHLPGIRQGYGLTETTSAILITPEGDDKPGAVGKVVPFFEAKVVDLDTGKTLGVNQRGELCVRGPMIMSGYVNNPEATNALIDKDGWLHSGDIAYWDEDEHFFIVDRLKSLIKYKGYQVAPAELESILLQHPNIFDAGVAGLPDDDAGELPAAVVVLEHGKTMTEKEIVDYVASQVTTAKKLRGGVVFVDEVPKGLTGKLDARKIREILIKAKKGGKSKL
Chain of Genome polyprotein (P29990 2492-3391 limits assumed): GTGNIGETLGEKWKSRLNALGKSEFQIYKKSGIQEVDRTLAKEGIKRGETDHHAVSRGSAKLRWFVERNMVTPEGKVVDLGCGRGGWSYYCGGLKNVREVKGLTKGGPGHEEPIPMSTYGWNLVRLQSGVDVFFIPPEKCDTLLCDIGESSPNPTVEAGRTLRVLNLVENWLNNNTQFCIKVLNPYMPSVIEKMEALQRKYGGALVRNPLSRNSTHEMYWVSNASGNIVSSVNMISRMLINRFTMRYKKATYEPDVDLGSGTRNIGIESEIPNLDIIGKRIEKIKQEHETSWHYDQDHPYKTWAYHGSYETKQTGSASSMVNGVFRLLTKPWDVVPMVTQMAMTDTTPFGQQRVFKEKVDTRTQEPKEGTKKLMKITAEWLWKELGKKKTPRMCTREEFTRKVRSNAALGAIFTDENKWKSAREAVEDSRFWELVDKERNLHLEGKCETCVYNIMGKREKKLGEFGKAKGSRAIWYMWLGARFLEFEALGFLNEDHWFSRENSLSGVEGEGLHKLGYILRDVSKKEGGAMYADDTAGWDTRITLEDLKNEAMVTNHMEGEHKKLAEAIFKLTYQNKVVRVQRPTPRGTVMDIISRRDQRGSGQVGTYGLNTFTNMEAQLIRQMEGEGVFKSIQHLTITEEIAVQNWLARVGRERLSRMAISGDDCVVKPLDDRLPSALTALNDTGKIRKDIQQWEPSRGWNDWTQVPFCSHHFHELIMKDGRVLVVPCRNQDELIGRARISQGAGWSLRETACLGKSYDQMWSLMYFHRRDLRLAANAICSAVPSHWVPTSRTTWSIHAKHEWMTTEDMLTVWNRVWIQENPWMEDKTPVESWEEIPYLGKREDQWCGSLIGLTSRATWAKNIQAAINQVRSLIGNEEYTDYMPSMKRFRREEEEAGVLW

SMILES: COC(=O)C1=C(C)N=c2s/c(=C/c3cccs3)c(=O)n2C1c1ccc(F)cc1 (configuration not stated)
- IC50 (Protein skinhead-1): > 100 µM (inactive)

SMILES: CC(C)Cn1cc(C(=O)N2CCC(C)CC2)c2c3ccccc3n(C)c2c1=O
- IC50 [1]: > 47.1 µM (inactive)
- EC50 [2]: > 53 µM (inactive)

SMILES: O=C(O)CN1C(=O)/C(=C\c2cccc(OCc3ccc(Cl)cc3)c2)SC1=S
- IC50 (Genome polyprotein): 39.5 µM (active)

SMILES: Clc1ccc2c(N/N=C/c3ccc(Br)cc3)ccnc2c1
- EC50 [3]: 2.54 µM (active)
- EC50 [4]: 15.5 µM (active)
- EC50 [5]: 9.32 µM (active)
- EC50 (Streptococcus): 3.89 µM (active)
- AC50 [6]: 3.79 µM (active)

SMILES: CN(C(=O)Cn1nnc(-c2cccc(C(F)(F)F)c2)n1)C1CCCCC1
- EC50 [7]: > 112 µM (not active)
- EC50 [8]: > 112 µM (not active)
- AC50 (Cytochrome P450 2C9): inconclusive

SMILES: Cc1noc(C)c1-c1cc(NCc2cccnc2)ncn1
- AC50 (Cytochrome P450 2C9): inconclusive

SMILES: c1csc(-c2nc3nc4ccccc4nc3n2Cc2ccc3c(c2)OCO3)c1
- EC50 [4]: 48.7 µM (active)
- EC50 [5]: 45.5 µM (active)

SMILES: CN(C)CCCNC(=O)C[C@H]1C[C@H](C(=O)N2CCOCC2)[C@@]2(C)c3[nH]c4ccc(Cl)cc4c3CCN2C1=O
- IC50 [1]: > 47.1 µM (inactive)
- EC50 [2]: > 53 µM (inactive)

SMILES: ClCCN(CCCl)c1ccc(C=Cc2ccncn2)cc1
- IC50 (Protein skinhead-1): > 100 µM (inactive)

SMILES: COc1ccc2oc(C(F)(F)C(F)F)cc(=O)c2c1
- IC50 (Protein skinhead-1): > 100 µM (inactive)

SMILES: COc1ccc(/C=C\c2cc(OC)c(OC)c(OC)c2)c(O)c1O [COMBRETASTATIN A-1]
- GI50 (P388/ADR): 0.139 µM (active)
- GI50 (SN12K1): 0.05 µM (active)
- GI50 (P388): 0.0525 µM (active)

SMILES: CCOC(=O)C(/C=N/c1ncccc1C)=C(/O)OCC
- AC50 (Cytochrome P450 2C9): inconclusive

SMILES: O=S(=O)(c1cccc2c(S(=O)(=O)N3CCCC3)cccc12)N1CCCC1
- IC50 (Protein skinhead-1): > 100 µM (inactive)

SMILES: Cc1ccccc1CN1C(=O)C(O)(CC(=O)c2ccncc2)c2ccccc21 (configuration not stated)
- EC50 [4]: 7.98 µM (active)
- EC50 [5]: 9.54 µM (active)

SMILES: Cc1cc(C(=O)N/N=C/c2cccc([N+](=O)[O-])c2)c(C)o1
- AC50 (Cytochrome P450 2C19): 22.4 µM (inconclusive)
- AC50 (Cytochrome P450 2C9): inconclusive

SMILES: Cc1ncsc1C(=O)N1CCCC(C(=O)c2ccc3ccccc3c2)C1 (configuration not stated)
- IC50 [1]: > 47.1 µM (inactive)
- EC50 [2]: > 53 µM (inactive)

SMILES: COc1cccc2c1C(=O)c1c(O)c3c(c(O)c1C2=O)C[C@](O)(C(=O)CO)CC3OC1CC(N)C(OC2CCCCO2)C(C)O1 (some centres not stated)
- GI50 (P388/ADR): 3.14 µM (inactive)
- GI50 (SN12K1): < 0.01 µM (active)
- GI50 (P388): < 0.01 µM (active)

SMILES: COC(=O)c1ccc(Cl)c(NC(=O)c2ccc(-c3ccccc3)cc2)c1
- AC50 (Cytochrome P450 2C9): inconclusive

SMILES: Nc1ncnc2c(C3OC(CO)C(O)C3O)n[nH]c12 (configuration not stated)
- GI50 (P388/ADR): 5.6 µM (inactive)
- GI50 (SN12K1): 0.176 µM (active)
- GI50 (P388): 10.2 µM (inactive)
